Data on 1 compound can be found in US10858364B2, “Imidazopyrazine inhibitors of Bruton's tyrosine kinase” (Acerta Pharma B.V., priority 2016, dated 2020).

By IC50 is commonly meant the concentration that gives 50% inhibition. High values mean lower potency, low ones higher potency. As a reminder, the Kd is the constant that tells how readily two partners part at equilibrium. Low readings indicate a tighter complex, high ones a looser complex.

Series [1] deals with T1, BMX (Homo sapiens (Human), UniProt P51813). Kind of series: BMX Z'-LYTE kinase assay. The class given is biochemical. To be noted: 1 h pre-incubation, Km ATP. Here is the method: (§1) BMX, TXK, EGFR, ERBB2, ERBB4, JAK3, BLK kinase activity was measured using the Z′-LYTE assay at Thermo Fisher. A 10-point dose response (final concentration in assay ranged from 10 μM to 0.5 nM in 3-fold dilution per dilution step) was generated with 1 h incubation of the test compound with the kinase prior to initiation of the kinase reaction by the addition of ATP. ATP concentration in the assay was Km ATP for the different kinases. IC50 values are determined by curve fitting of the experimental results at Thermo Fisher.
T1 sequence (P51813 whole entry): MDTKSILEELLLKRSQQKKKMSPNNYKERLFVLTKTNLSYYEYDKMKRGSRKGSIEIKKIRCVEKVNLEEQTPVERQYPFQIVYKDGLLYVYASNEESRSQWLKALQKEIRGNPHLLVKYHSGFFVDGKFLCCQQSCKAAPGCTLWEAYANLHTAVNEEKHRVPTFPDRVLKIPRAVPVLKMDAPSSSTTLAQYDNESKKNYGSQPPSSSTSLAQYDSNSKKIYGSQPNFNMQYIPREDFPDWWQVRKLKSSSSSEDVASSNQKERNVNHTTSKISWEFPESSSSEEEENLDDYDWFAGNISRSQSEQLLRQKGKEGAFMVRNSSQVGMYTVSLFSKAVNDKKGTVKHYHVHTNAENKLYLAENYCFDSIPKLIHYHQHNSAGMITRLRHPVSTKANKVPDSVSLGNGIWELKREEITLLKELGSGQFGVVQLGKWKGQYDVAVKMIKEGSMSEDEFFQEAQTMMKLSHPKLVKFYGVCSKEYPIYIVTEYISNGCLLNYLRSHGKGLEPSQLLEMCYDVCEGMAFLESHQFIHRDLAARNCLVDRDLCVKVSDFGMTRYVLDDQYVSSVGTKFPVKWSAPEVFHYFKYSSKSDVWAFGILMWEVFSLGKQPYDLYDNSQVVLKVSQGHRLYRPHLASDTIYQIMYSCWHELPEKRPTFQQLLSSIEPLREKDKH

Another series addresses ERBB2 (Homo sapiens (Human), UniProt P04626). Kind of series: DiscoveRx Kd dose response, ERBB2. The class given is binding. Here is the method: (§2) Kinase profiling was performed with M27 was done at DiscoveRx at a single dose of 1 μM on all available kinases (KINOMEscan). The overall kinase selectivity score is in Table 6. […] Kinases inhibited >65% at 1 μM for M27 were followed up with a dose response at DiscoveRx. The M27 had IC50 values <1 μM for almost the same set of kinases with exception of TXK, but with additional inhibition of BRK (PTK6).

Another series addresses EGFR (Homo sapiens (Human), UniProt P00533). Put plainly: EGFR Z'-LYTE kinase assay. The class given is biochemical. The note with it: 1 h pre-incubation, Km ATP. Here is the method:
as §1

A further series addresses CYP2D6 (Homo sapiens (Human), UniProt P10635). Kind of series: CYP inhibition, CYP2D6. The series is classed as in vitro ADME.
The next series addresses ERBB4 (Homo sapiens (Human), UniProt Q15303). Kind of series: DiscoveRx Kd dose response, ERBB4. The series is classed as binding. Here is the method:
as §2

Series [2] concerns all available kinases (KINOMEscan). Kind of series: KINOMEscan (DiscoveRx scanMAX) profiling, selectivity score. The series is classed as binding. The note with it: single dose of 1 μM. Here is the method: as §2
The next series deals with BRK (PTK6) (Homo sapiens (Human), UniProt Q13882). Put plainly: DiscoveRx Kd dose response, BRK (PTK6). The series is classed as binding. Here is the method:
as §2

For series [3], the target named is T2, TEC (Homo sapiens (Human), UniProt P42680). Kind of series: TEC LanthaScreen assay. The series is classed as binding. The note with it: 2h incubation. Here is the method:
TEC enzyme activity is measured using the LanthaScreen assay from ThermoFisher as outlined below.
TEC enzyme (LifeTech # PV3269) and Eu-anti-HIS antibody (Invitrogen # PV5596) are mixed and diluted in kinase buffer (50 mM Hepes pH 7.5+10 mM MgCl2+1 mM EGTA+0.01% Brij-35) to 3 and 6 nM, respectively. Final concentration in the assay for enzyme and antibody are 1 and 2 nM, respectively.
Tracer (Kinase Tracer 178, Invitrogen # PV5593) is diluted in Kinase buffer to 3 nM. Final concentration in the assay is 1 nM.
Serial dilutions log 10 from 1 mM to 3.16 nM of test compounds are made in 100% DMSO. The dilutions in DMSO are then diluted 33-fold in Kinase buffer (50 mM Hepes pH 7.5+10 mM MgCl2+1 mM EGTA+0.01% Brij-35).
The assay is performed as follows: 5 μL/well of TEC enzyme and EU-anti-His antibody dilution is mixed with 5 μL/well tracer dilution and 5 μL/well of compound dilution in Kinase buffer. Final compound concentration in the assay ranged from 10 μM to 0.316 nM, with 1% DMSO final concentration in assay. Following a 2h incubation at room the TR-FRET signal at 615 nm and 665 nm is read. The ratio 665/615 was used to calculate values expressed as percentage of the difference in readout (S/N) of the controls with and without Tracer. IC50 values were determined by curve fitting of the experimental results in Dotmatics.

The target of series [4] is T1, BMX. Kind of series: DiscoveRx Kd dose response, BMX. The series is classed as binding. Here is the method: as §2
The next series deals with CYP2B6 (Homo sapiens (Human), UniProt P20813). Put plainly: CYP inhibition, CYP2B6. The series is classed as in vitro ADME.
Chain of CYP2B6 (P20813 whole entry): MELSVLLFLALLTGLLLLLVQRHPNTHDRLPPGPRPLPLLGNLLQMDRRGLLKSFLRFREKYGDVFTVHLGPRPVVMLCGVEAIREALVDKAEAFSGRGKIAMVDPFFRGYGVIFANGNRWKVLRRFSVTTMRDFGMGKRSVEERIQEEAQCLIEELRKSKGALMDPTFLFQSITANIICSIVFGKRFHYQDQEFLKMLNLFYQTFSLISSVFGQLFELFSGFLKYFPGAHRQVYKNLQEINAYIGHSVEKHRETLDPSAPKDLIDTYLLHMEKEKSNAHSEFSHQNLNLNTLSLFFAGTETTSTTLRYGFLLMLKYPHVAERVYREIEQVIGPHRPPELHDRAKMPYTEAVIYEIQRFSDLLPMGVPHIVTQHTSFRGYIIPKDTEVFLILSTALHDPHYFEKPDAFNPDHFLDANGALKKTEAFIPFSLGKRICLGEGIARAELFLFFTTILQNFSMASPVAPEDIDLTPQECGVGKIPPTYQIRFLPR
Series [5] addresses T2, TEC. Put plainly: DiscoveRx Kd dose response, TEC. The class given is binding. Here is the method:
as §2

Another series has as its target CYP2C19 (Homo sapiens (Human), UniProt P33261). Kind of series: CYP inhibition, CYP2C19. The class given is in vitro ADME.
A further series relates to CYP3A4/5. Put plainly: CYP inhibition, CYP3A4/5. The series is classed as in vitro ADME.

T2 sequence (P42680 whole entry): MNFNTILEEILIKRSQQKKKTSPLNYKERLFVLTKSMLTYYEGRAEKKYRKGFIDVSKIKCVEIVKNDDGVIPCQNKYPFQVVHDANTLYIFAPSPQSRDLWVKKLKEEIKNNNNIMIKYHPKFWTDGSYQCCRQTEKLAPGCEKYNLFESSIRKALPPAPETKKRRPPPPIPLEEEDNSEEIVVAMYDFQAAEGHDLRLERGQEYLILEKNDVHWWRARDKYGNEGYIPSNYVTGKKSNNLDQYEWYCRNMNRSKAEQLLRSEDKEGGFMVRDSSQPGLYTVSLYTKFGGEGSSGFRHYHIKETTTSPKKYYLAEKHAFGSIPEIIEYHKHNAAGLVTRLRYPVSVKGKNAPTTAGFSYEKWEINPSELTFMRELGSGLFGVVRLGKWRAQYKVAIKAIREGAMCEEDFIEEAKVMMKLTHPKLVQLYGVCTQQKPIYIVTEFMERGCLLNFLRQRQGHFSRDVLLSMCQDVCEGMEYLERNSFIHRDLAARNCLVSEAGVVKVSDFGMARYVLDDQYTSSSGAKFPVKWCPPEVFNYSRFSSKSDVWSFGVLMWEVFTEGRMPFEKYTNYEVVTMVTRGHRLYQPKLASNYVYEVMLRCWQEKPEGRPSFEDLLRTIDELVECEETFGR
Chain of EGFR (P00533 25-1210): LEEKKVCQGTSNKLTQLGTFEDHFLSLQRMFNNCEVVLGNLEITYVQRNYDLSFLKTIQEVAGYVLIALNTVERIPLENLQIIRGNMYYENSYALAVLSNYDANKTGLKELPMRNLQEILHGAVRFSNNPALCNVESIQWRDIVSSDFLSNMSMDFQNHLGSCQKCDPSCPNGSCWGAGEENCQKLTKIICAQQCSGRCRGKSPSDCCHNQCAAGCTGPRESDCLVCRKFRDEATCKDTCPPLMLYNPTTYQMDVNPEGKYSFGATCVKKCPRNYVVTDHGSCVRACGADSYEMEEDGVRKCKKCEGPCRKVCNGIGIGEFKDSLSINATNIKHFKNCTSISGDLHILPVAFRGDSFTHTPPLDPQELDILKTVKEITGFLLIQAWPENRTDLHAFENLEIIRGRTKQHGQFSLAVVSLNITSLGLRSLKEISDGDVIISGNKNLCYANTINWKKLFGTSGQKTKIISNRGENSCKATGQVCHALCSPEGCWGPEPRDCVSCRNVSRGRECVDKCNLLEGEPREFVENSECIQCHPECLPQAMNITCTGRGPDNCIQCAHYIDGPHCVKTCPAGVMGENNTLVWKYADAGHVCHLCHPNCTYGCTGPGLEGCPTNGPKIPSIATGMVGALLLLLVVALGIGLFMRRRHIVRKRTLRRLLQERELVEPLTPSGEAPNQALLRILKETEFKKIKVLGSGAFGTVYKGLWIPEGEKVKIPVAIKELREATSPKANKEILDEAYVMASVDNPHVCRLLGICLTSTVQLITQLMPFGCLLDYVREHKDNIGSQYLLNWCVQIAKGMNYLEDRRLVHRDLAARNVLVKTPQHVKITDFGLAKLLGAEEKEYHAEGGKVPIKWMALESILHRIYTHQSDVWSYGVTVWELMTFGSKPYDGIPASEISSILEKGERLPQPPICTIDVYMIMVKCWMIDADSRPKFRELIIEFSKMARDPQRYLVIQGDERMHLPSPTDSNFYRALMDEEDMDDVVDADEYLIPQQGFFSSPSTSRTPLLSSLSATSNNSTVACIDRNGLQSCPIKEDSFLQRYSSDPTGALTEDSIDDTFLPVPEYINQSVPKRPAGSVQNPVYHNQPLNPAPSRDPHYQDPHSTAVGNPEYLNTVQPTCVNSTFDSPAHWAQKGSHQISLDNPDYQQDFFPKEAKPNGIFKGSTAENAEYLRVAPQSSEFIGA
Chain of ERBB4 (Q15303 26-1308): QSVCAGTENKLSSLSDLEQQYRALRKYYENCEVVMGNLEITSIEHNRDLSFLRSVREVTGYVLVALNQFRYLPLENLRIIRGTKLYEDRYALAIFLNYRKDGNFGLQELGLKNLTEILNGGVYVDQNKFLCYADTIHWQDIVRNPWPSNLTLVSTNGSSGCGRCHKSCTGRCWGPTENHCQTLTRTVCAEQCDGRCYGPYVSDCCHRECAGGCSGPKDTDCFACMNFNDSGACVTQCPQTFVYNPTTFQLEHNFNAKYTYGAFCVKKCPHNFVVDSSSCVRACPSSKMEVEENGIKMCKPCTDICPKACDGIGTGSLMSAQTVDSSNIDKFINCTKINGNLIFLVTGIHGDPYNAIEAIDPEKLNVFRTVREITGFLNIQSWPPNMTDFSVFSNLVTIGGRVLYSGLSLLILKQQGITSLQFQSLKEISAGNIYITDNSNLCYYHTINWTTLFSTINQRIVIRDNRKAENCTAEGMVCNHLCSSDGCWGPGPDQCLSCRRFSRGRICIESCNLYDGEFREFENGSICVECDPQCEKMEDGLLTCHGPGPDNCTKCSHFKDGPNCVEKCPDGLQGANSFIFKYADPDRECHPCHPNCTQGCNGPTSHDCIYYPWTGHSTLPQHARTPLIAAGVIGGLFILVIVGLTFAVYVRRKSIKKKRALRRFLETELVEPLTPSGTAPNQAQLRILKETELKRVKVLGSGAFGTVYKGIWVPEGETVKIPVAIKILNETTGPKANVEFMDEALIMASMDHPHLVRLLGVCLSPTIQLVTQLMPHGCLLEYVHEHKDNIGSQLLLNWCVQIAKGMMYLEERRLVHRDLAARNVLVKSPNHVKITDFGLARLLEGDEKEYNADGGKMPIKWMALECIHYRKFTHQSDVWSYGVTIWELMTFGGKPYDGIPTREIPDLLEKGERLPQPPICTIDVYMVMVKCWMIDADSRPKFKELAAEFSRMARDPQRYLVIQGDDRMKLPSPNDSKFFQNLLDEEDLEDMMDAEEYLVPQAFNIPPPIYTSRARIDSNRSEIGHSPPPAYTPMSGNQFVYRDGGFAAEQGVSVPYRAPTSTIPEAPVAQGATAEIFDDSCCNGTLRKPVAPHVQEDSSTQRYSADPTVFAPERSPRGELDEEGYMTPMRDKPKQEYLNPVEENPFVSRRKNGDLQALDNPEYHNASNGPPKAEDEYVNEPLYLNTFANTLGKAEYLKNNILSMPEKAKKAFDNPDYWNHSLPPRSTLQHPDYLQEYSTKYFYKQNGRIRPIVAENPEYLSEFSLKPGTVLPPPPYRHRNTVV
Chain of CYP2D6 (P10635 whole entry): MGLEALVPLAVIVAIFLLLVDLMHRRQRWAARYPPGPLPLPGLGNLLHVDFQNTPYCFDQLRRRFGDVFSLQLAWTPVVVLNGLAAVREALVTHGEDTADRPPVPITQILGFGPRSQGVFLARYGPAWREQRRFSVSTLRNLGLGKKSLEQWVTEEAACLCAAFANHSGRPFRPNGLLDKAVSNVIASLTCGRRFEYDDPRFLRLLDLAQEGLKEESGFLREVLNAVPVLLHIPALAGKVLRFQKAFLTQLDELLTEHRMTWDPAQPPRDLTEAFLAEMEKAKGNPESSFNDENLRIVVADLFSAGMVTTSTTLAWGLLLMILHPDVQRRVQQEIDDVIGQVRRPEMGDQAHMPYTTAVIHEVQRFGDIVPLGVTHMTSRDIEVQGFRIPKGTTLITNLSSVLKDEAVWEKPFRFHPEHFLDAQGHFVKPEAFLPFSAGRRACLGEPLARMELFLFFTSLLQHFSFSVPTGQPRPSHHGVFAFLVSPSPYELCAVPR

`CC#CC(=O)NCCCC(=O)c1nc(-c2ccc(C(=O)Nc3ccccn3)cc2)c2c(N)nccn12` [Formula (I), 4-(8-amino-3-(4-(but-2-ynamido)butanoyl)imidazo[1,5-a]pyrazin-1-yl)-N-(pyridin-2-yl)benzamide]: the IC50 against BMX [1] is 15 ± 2 nM; against EGFR it was above 10000 nM; against TEC [3] it was 345 ± 34 nM. For the same compound, the equilibrium dissociation constant (Kd) at ERBB2 came to 120 nM; on ERBB4, 970 nM; at BRK (PTK6), 150 nM; at BMX [4], 190 nM; on TEC [5] it was 40 nM. The CYP2D6 inhibition entry on CYP2D6 is given as “does not inhibit”. Moreover, in [2], the “Selectivity Score S(10)” value amounted to 0.005. Also, in series [2], the “Selectivity Score S(35)” value was found to be 0.013. The CYP2B6 inhibition entry at CYP2B6 is “does not inhibit”. Moreover, the CYP2C19 inhibition entry on CYP2C19 is “weak inhibitor”. Also, in the series with CYP3A4/5, the CYP3A4/5 inhibition entry is on record as “does not inhibit”.
